According to ChEMBL document CHEMBL1201862, “PubChem BioAssay data set” (2004):
Active and inactive are the calls of the source.

Columns and labels:
[1] = target: T1, Aryl hydrocarbon receptor (Homo sapiens, UniProt P35869); conditions: Potency;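 note: confirmatory quantitative high-throughput screen measuring activation of the AhR signaling pathway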
T1 sequence (P35869 whole entry): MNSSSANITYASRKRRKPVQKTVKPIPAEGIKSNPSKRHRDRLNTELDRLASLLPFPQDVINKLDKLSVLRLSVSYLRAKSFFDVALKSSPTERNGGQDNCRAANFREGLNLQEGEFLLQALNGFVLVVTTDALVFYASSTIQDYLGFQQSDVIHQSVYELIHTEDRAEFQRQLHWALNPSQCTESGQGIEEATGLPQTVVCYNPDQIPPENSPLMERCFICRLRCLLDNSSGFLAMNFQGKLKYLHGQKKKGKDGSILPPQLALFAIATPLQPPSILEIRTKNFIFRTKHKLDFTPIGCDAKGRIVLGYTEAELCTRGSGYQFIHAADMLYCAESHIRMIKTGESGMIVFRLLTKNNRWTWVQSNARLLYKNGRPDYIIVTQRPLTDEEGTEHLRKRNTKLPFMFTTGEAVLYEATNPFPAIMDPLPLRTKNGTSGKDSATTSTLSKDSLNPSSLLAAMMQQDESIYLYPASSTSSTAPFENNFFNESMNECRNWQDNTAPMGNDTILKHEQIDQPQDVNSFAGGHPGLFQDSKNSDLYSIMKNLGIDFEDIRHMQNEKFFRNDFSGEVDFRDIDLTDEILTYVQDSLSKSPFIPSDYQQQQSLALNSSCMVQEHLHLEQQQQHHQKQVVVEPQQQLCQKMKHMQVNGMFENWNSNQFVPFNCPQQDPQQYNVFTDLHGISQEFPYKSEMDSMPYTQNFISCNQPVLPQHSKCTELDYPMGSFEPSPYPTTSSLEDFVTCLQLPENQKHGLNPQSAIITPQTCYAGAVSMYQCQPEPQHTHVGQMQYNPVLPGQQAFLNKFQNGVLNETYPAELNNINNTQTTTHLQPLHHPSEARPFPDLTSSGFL

[2] = miR-122 activators in hepatoma reporter cells, dose response, cell-based, Huh7 psiCHECK-miR122, Renilla luciferase, cherry-picked (AID 651956); format: functional;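 note: huh7 hepatoma cells stably carrying a psiCHECK-2 miR-122 sensor plasmid; renilla luciferase signal reporting endogenous miR-122 activity after 48 h compound exposure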
[3] = AlphaScreen signal interference compounds, dose response, artefact control for ARNT-TACC3 interaction inhibitor project, biochemical, luminescence, cherry-pick (AID 651705); format: functional;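 note: AlphaScreen bead proximity signal that flags compounds interfering with the detection technology; potency reflects signal decrease which marks the compound as an assay artifact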
Cytochrome P450 2D6 = Cytochrome P450 2D6 (Homo sapiens, UniProt P10635);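 note: CYP2D6 member of a cytochrome P450 panel assay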
Sequence of Cytochrome P450 2D6 (P10635 whole entry): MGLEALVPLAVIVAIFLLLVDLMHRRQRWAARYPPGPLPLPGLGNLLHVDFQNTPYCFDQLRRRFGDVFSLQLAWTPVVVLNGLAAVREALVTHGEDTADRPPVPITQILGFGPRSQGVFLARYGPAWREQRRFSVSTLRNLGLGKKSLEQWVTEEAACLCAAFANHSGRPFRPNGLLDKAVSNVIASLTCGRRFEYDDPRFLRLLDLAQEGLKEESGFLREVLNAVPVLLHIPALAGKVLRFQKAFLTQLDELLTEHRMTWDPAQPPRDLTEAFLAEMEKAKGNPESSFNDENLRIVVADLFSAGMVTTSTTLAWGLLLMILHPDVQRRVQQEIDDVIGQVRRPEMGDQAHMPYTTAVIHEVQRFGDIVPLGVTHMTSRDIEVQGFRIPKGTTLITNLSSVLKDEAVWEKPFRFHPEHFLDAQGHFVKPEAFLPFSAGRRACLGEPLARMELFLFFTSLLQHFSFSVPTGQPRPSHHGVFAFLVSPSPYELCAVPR

SMILES	AC50 [2]	AC50 [3]	other results
CCOP(=S)(OCC)Oc1ccc2c(C)c(Cl)c(=O)oc2c1 [COUMAPHOS]			AC50 [1]: 0.178 µM (inconclusive)
Cc1ccc(-c2cnc3c(c2)C(=O)N([C@H](C)CO)C[C@@H](C)[C@H](CN(C)CC2CCCCC2)O3)cc1	18.3 µM (active)		
O=C(C1CCOCC1)N1[C@H](CO)[C@H]2c3ccccc3NC[C@H]21	30 µM (active)		
Cc1cccc(C(=O)Nc2nnc(C3=COCCO3)o2)c1		128 µM (active)	
Cc1c(CCO)c(=O)n(-c2ccccc2)n1S(=O)(=O)c1c(Cl)cc(Cl)cc1Cl		76.8 µM (active)	AC50 (Cytochrome P450 2D6): 7.94 µM (inconclusive)
